According to ChEMBL document CHEMBL1833850, “Thailandepsins: bacterial products with potent histone deacetylase inhibitory activities and broad-spectrum antiproliferative activities” (J Nat Prod, 2011):
pIC50: −log10 of the molar value.

Assays:
[1] = biological target: Histone deacetylase 3/Nuclear receptor corepressor 2 (HDAC3/NCoR2) (Homo sapiens, UniProt O15379); format: protein-complex assay
[2] = biological target: T1, Histone deacetylase 8 (Homo sapiens, UniProt Q9BY41)
T1 sequence (Q9BY41 whole entry): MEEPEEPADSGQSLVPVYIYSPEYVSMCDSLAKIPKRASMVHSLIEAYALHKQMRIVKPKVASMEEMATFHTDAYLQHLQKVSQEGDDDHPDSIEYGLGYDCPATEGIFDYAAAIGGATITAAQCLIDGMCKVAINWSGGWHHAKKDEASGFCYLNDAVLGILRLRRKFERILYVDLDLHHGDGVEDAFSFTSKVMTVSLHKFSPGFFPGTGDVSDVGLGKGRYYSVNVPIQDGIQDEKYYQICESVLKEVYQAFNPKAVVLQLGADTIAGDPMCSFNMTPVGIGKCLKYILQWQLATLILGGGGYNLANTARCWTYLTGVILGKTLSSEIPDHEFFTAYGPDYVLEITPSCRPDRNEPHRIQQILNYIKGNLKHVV

[3] = biological target: T2, Protein deacetylase HDAC6 (Homo sapiens, UniProt Q9UBN7); assay: Inhibition of recombinant human HDAC6 using Boc-L-Lys(epsilon-acetyl)-AMC as substrate by two-step fluorogenic assay
T2 sequence (Q9UBN7 whole entry): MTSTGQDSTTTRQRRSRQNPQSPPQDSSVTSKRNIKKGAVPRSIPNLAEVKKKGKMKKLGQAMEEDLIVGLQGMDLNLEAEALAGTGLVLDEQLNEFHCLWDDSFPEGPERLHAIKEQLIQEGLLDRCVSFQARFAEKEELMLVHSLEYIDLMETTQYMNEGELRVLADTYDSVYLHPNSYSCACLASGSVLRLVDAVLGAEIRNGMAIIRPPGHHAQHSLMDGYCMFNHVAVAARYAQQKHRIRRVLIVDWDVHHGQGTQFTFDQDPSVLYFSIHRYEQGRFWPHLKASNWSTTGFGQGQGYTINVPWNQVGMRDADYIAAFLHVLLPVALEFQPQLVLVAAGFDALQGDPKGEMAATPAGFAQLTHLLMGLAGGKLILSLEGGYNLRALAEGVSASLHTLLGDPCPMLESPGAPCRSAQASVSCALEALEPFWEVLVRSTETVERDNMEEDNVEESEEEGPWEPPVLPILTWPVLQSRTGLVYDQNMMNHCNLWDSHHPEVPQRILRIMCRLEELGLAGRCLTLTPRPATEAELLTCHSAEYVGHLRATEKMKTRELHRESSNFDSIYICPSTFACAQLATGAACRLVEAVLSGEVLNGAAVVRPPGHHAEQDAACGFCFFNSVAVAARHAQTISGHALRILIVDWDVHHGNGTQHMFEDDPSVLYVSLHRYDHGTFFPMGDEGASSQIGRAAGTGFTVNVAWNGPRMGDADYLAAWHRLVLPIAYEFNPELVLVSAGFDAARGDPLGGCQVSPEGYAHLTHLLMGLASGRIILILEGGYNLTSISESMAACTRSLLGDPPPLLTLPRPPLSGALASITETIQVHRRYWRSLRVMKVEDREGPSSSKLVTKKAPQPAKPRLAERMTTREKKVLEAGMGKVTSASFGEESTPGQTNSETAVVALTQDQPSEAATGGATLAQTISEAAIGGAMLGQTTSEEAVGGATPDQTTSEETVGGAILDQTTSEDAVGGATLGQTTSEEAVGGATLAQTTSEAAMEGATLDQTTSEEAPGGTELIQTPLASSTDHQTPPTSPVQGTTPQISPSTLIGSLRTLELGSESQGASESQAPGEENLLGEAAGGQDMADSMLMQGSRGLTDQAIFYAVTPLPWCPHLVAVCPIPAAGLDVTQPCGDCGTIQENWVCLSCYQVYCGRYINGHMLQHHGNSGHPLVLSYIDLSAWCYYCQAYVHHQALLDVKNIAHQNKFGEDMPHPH

[4] = biological target: Histone deacetylase 2/Nuclear receptor corepressor 2 (Homo sapiens, UniProt Q92769); assay: Inhibition of recombinant human HDAC2/NCOR2 using Boc-L-Lys(epsilon-acetyl)-AMC as substrate by two-step fluorogenic assay; format: protein-complex assay
[5] = biological target: Histone deacetylase 4 (Homo sapiens, UniProt P56524)
[6] = biological target: Histone deacetylase 1/Nuclear receptor corepressor 2 (Homo sapiens, UniProt Q13547); assay: Inhibition of recombinant human HDAC1/NCOR2 using Boc-L-Lys(epsilon-acetyl)-AMC as substrate by two-step fluorogenic assay; format: protein-complex assay
[7] = biological target: Histone deacetylase 9 (Homo sapiens, UniProt Q9UKV0)
[8] = biological target: T3, Histone deacetylase 7 (Homo sapiens, UniProt Q8WUI4)
T3 sequence (Q8WUI4 whole entry): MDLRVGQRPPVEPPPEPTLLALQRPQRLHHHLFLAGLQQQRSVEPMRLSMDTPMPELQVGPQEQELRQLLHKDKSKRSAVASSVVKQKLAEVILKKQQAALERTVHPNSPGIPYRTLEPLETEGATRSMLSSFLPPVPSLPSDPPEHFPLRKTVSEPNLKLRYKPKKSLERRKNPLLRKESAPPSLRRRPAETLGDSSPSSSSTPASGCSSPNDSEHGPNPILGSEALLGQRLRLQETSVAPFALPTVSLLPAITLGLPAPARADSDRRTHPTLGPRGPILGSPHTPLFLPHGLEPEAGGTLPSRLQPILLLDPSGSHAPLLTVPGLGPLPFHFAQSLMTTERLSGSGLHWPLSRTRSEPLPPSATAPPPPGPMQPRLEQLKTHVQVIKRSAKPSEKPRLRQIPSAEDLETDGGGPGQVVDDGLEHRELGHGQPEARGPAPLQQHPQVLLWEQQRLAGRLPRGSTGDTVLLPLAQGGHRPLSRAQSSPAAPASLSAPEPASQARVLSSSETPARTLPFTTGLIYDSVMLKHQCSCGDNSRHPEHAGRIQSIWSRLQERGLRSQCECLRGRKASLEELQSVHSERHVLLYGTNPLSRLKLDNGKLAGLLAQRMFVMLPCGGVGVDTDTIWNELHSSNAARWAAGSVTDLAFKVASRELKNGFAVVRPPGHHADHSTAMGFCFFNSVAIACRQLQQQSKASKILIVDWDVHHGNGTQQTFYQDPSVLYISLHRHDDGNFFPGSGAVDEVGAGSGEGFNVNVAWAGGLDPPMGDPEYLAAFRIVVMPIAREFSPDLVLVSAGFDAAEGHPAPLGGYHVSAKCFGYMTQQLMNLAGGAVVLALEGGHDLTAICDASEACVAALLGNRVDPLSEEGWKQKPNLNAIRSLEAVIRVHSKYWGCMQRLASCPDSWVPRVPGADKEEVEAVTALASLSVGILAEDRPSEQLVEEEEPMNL
Description: Inhibition of recombinant human HDAC7 using Boc-L-Lys(epsilon-trifluoroacetyl)-AMC as substrate by two-step fluorogenic assay

Histone deacetylase 9, sequence (Q9UKV0 whole entry): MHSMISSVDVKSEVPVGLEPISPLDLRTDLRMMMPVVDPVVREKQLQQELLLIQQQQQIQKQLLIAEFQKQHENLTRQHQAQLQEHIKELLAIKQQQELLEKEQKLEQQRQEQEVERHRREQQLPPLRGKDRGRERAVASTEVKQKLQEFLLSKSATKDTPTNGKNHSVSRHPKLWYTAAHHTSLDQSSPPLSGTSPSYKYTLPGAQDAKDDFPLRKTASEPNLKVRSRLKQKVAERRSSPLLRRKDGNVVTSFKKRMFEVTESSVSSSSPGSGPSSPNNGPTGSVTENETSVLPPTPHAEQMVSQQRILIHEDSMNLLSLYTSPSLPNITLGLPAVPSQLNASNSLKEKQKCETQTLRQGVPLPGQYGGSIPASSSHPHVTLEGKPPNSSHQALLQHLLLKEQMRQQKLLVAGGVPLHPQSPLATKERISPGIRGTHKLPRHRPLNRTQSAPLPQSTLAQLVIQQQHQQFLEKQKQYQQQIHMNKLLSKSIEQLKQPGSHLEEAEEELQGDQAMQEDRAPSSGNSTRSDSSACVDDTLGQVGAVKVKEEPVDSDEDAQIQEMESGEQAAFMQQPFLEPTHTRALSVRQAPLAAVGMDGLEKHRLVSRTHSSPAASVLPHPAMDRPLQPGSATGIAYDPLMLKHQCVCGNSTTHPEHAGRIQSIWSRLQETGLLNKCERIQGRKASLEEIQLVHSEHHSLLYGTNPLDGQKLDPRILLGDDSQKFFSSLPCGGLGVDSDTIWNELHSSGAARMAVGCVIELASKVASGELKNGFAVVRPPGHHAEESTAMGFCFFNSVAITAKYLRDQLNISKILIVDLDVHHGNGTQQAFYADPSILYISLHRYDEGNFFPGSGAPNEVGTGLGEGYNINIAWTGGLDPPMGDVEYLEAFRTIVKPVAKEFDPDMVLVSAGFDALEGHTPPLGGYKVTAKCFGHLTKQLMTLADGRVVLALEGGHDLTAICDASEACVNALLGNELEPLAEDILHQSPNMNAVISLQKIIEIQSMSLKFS
Histone deacetylase 4, sequence (P56524 whole entry): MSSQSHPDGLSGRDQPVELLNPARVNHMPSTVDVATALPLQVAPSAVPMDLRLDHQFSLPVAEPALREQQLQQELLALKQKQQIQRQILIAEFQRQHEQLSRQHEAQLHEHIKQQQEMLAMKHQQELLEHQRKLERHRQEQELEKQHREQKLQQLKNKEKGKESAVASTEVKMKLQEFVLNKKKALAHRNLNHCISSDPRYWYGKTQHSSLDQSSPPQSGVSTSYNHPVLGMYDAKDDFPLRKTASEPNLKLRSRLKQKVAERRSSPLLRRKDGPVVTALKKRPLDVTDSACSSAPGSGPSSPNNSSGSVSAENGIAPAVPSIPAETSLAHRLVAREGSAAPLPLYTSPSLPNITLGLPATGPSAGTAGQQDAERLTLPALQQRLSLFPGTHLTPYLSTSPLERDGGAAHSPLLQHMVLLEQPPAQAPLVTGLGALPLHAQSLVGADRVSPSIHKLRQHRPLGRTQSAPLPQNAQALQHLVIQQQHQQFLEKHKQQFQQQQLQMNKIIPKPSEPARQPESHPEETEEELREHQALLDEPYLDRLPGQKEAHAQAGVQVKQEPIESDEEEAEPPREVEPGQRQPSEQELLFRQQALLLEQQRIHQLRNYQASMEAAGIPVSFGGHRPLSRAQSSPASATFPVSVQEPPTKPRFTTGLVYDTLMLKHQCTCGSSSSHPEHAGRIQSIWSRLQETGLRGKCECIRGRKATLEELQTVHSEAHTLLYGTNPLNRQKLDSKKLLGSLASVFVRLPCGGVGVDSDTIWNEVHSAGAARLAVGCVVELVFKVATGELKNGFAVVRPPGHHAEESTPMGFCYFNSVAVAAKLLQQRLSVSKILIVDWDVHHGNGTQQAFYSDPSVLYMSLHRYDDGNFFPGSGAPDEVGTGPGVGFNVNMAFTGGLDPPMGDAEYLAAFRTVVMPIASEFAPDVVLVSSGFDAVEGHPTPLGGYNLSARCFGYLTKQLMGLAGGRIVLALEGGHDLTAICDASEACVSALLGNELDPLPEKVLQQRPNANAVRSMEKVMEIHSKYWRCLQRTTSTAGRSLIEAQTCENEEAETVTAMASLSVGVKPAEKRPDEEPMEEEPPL
Histone deacetylase 1/Nuclear receptor corepressor 2, sequence (Q13547 whole entry): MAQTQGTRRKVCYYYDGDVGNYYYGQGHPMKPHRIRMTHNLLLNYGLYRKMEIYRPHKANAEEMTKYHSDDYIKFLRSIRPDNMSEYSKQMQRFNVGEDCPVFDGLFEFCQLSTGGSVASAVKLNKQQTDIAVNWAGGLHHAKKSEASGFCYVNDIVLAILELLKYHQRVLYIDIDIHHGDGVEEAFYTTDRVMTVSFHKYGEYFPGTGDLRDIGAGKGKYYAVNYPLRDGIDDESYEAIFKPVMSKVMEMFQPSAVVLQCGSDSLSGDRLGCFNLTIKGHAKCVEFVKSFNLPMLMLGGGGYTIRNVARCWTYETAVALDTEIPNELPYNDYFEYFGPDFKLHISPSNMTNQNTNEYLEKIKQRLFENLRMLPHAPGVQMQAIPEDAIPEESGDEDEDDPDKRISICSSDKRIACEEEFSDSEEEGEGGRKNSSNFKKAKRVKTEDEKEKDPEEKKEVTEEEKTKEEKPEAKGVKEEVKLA
Histone deacetylase 1/Nuclear receptor corepressor 2, sequence (Q9Y618 whole entry, further chain): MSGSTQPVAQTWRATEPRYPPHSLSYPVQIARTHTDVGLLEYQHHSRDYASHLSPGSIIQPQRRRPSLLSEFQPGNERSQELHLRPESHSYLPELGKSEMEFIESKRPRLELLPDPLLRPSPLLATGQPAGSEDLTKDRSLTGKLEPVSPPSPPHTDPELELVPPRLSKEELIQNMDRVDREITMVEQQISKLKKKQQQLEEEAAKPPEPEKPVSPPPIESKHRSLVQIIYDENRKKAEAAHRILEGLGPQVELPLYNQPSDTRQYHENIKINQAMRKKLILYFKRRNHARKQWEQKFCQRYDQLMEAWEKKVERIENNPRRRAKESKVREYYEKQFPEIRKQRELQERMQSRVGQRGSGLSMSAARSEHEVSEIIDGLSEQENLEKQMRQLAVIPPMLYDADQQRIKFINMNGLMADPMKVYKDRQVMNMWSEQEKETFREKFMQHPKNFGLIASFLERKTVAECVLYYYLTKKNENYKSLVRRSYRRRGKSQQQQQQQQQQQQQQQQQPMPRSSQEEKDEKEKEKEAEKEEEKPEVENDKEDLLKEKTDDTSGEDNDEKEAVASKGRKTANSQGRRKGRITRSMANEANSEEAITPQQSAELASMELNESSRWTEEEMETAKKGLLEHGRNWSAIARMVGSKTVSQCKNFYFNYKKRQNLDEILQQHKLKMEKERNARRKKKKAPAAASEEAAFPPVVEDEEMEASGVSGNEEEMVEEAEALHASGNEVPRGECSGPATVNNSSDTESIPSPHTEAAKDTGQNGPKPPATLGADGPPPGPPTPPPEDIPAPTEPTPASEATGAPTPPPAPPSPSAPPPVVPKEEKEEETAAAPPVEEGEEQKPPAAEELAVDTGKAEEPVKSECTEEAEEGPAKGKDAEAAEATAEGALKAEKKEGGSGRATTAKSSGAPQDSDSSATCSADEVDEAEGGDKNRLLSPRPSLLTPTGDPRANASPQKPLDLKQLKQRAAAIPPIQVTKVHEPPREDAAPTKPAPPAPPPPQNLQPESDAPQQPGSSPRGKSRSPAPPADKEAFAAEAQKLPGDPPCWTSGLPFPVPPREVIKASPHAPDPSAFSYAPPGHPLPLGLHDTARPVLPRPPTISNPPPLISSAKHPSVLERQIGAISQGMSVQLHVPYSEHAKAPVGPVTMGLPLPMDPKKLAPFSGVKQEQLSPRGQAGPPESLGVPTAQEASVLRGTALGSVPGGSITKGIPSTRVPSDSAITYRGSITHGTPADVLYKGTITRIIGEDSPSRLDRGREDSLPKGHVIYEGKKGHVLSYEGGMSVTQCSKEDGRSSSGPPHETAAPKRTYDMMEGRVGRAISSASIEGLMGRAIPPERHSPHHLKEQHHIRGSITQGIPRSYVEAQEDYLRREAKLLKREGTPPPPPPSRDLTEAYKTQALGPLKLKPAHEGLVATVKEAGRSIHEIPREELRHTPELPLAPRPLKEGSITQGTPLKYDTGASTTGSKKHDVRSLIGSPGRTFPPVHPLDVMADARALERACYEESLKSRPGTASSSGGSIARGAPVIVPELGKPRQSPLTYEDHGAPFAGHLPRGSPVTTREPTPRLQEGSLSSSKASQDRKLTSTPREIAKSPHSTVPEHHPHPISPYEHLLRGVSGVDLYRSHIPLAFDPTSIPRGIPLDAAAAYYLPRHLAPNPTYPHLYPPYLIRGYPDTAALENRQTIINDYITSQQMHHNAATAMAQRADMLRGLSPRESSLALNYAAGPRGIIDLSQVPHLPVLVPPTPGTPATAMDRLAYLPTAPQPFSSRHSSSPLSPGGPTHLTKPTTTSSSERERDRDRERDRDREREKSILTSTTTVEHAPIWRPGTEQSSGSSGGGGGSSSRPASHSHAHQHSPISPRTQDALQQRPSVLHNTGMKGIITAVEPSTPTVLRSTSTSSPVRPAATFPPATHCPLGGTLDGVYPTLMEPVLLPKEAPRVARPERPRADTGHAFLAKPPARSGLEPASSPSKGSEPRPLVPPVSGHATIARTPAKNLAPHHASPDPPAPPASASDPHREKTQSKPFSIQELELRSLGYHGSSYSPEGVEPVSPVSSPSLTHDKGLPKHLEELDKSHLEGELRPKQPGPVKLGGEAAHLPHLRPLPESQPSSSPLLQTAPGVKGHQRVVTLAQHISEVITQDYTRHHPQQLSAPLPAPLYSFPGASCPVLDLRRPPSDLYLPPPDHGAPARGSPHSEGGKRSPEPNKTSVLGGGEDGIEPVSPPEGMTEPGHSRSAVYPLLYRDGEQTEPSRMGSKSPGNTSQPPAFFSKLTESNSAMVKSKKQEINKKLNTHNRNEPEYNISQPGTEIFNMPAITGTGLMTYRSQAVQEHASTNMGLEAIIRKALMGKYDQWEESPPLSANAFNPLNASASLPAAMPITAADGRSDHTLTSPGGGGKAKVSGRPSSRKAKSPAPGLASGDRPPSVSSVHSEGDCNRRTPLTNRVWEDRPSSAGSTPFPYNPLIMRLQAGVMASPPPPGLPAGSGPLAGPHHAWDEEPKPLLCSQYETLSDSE

Structure (SMILES) | pIC50 [1] | pIC50 [2] | pIC50 [3] | pIC50 [4] | pIC50 [5] | pIC50 [6] | pIC50 [7] | pIC50 [8]
CCCC[C@H]1NC(=O)C[C@H]2/C=C/CCSSC[C@@H](NC1=O)C(=O)N[C@H]([C@@H](C)CC)[C@@H](O)CC(=O)O2 [THAILANDEPSIN B] | 7.64 | 4.52 | 4.96 | 5.35 | 4.66 | 5.11 | < 4.30 | 
C/C=C1\NC(=O)[C@H]2CSSCC/C=C/[C@H](CC(=O)N[C@H](C(C)C)C(=O)N2)OC(=O)[C@H](C(C)C)NC1=O [ROMIDEPSIN] |  |  |  |  | < 4.30 | 5.17 | < 4.30 | < 4.30
CC[C@H](C)[C@H]1NC(=O)[C@H]2CSSCC/C=C/[C@H](CC(=O)N[C@H](CCSC)C(=O)N2)OC(=O)C[C@@H]1O [THAILANDEPSIN A] | 7.06 | < 4.30 | 5.00 | 4.41 | < 4.30 | 5.12 | < 4.30 | < 4.30
